The results in this text go back to patent US20060122153A1, “Antineoplastic ether lipid compounds with modifications at the sn-2 carbon” (priority 2003, published 2006).

Where “and” joins values, the source holds several entries; their conditions need not be identical. Equal values may be shown once. Entries after “also recorded” stand apart in the source; their conditions may differ. Read-outs that look alike come from different tables or passages of the source.

What is called GI50 is the concentration that inhibits growth by half.

Data set [1] relates to DEVDase activity (Caspase 3) in Jurkat T cells. As to the kind of experiment: DEVDase activity in Jurkat T cells. The format is cell-based. The settings on record: Jurkat T cells, 6 hours. How it is done: Suspension cells were seeded at density 3.2×10^5 cells per mL in RPMI-1640 medium (Bio-Whittaker) supplemented with 10% heat inactivated FBS (Bio-Whittaker). Cells were pre-incubated overnight prior to treatment with the ether lipid compounds of the invention. At treatment time cell density was 5×10^5 cells per mL. Cells were incubated with the ether lipid compounds of the invention for various periods of time, usually 6 hours. Cells were collected, washed with 1×DPBS and resuspended in 110 μl of Buffer A (10 mM BEPES-KOH, pH 7.4, 2 mM EDTA, 0.1% CHAPS, 5 mM DTT, 1:100 dilution of protease inhibitors cocktail (Sigma)-DTT and protease inhibitors should be added just before use). After 10 min incubation on ice in order to lyse cells, samples were frozen on dry ice/ethanol and kept at −20° C. until analysis.
At the time of analysis of DEVDase activity frozen pellets were kept on ice until thawed and after vigorous vortexing samples were centrifuged at 14,000 rpm for 6 min.; Supernatant was transferred into another tube and 2 μl, in triplicates, were used for protein measurement using Bradford reagent (Bio-Rad).
Measurement of DEVDase activity was carried out in 100 μl volume, where 10 μg of protein was delivered in 50 μl of Buffer A and 40 μM of substrate Ac-DEVD-AMC was also delivered in 50 μl of Buffer A. All measurements were done in triplicates. Reaction was carried out for 1 hour and generation of fluorescent product of reaction (aminomethylcoumarin) was measured by reading fluorescence at 1em 460 nm (1ex 360 nm). Changes in DEVDase activity were calculated after subtraction of background fluorescence of substrate incubated without proteins, and were expressed as percent of control (DEVDase activity in untreated cells). Average of DEVDase activity, calculated from few independent experiments, was used to calculate percent of L-ether lipid-induced DEVDase activity.

Another data set deals with WI38. The settings on record: WI38 normal human fibroblast cell line, 3 days. From the text:
(§1) The following cell lines were selected from the cell bank for screening and GI50 studies: MCF-7: human breast tumor, MCF-7/ADR: MCF-7 adriamycin resistant subline, HT-29: human colon carcinoma, A-549: human non-small cell lung cancer, NIH-3T3: mouse Swiss embryo fibroblast and WI-38: human lung fibroblast, SKMEL-28: human melanoma, Lewis Lung: mouse lung carcinoma, DU-145: prostate carcinoma, B16F10: mouse melanoma, L1210: murine lymphocytic leukemia, P-388: murine leukemia, U-937: human histolytic lymphoma. Except HT-29, WI-38, NIH-3T3 and Lewis Lung which were obtained from the American Type Culture Collection (Rockville, Md.) all the other cell lines were obtained from National Cancer Institute—Frederick Research Facility (Frederick, Md.). All the cell lines were grown in RPMI-1640 medium containing 10% fetal bovine serum (FBS) except WI-38 and DU-145 which were grown in EMEM+10% FBS at 37° C., 5% CO2 and 100% humidity and NIH-3T3, Lewis Lung, B16F10 and L1210 which were grown in DMEM containing 10% FBS (10% HS for L1210). All the adherent cell lines were detached from the culture flasks by addition of 2-3 ml of 0.05% trypsin-EDTA. Thereafter, trypsin was inactivated by addition of 10 mL of 10% serum-containing RPMI-1640 medium. Cells were separated into a single-cell suspension by gentle pipetting action. Depending on the cell type, 3,6000 to 10,000 cells were plated onto 96-well plates a day prior to the drug treatment, in a volume of 100 μl per well.
(§2) The test compounds were made in-house and the compounds were dissolved PBS or saline at a stock concentration of approximately 20 mM, which is 400 times the desired final maximum test concentration. The stock solutions were then diluted with complete medium to twice the desired final concentration. 100 μl aliquots of each dilution was then added to the designated wells. After 3 days of incubation, cell growth was determined.
(§3) The SRB assay was performed as described by Monks, A., Scudiero, D., Skehan, P., Shoemaker, R., Paull, K., Vistica, D., Hose, C., Langley, J., Cronise, P., and Vaigro-Wolff, A. Feasibility of a high-flux anticancer drug screen using a diverse panel of cultured human tumo-r cell lines. J Natl Cancer Inst, 83: 757-766, 1991 with minor modifications. Following drug treatment, cells were fixed with 50 μl of cold 50% (wt/vol) trichloroacetic acid (TCA) for 60 minutes at 4° C. The supernatant was discarded, and the plates were washed six times with deionized water and then air dried. The precipitate was stained with 100 μl SRB solution (0.4% wt/vol in 1% acetic acid) for 10 minutes at room temperature, and free SRB was removed by washing three times with 1% acetic acid, and the plates were then air dried. Bound SRB was solubilized with Tris buffer (10 mM), and the ODs were read using an automated plate reader (Bio-Rad, Model 3550-UV) at 490 nm. Background values were subtracted from the test data, and the data was calculated as a % of control. […] Percentage growth was calculated as described by, Peters, A. C., Ahmad, I., Janoff, A. S., Pushkareva, M. Y., and Mayhew, E. Growth Inhibitory effects of liposome-associated 1-o-octadecyl-2-o-methyl-sn-glycero-3-phosphocholine. Lipids, 32:1045-1054, 1997. The raw optical density data Was imported into an Excel spreadsheet to determine dose responses. […] By varying drug concentration,-dose response curves were generated and the GI-50 values were calculated. The GI50 values for each experiment were calculated using data obtained from three duplicate wells on two separate plates.
(§4) For growth inhibitory evaluation, we used five human tumor cell lines (U937; HT29; A549; MCF7; MCF7/ADR) and two normal fibroblast cell lines (NIH-3T3, murine; WI-38, human).

The next data set deals with A549. The data set can be described thus: In vitro growth inhibition (GI50), SRB assay. Type of data set: cell-based, human. The conditions noted are these: A549 tumor cell line, 3 days.
Source text: as §1, §2, §3, §4

A further data set deals with MCF7. The data set can be described thus: In vitro growth inhibition (GI50), SRB assay. The format is cell-based, human. The settings on record: MCF7 tumor cell line, 3 days.
Source text: as §1, §2, §3, §4

The next data set relates to HT29. The data set can be described thus: In vitro growth inhibition (GI50), SRB assay. The conditions noted are these: HT29 tumor cell line, 3 days. The format is cell-based, human.
Source text: as §1, §2, §3, §4
(In SRB staining, fixed cells bind dye roughly in proportion to their protein.)

The subject of another data set is MCF7/ADR. As to the kind of experiment: In vitro growth inhibition (GI50), SRB assay. Type of data set: cell-based, human. The conditions noted are these: MCF7/ADR tumor cell line, 3 days.
Source text: as §1, §2, §3, §4

For the next data set, the system named is U937. The data set can be described thus: In vitro growth inhibition (GI50), cell growth assay. The format is cell-based, human. The settings on record: U937 tumor cell line, 3 days. How it is done: After 3 days of incubation, cell growth was determined.
To determine the Growth Inhibition in the suspension cell lines, cell numbers were directly counted instead of using the SRB assay which determines the total cell protein. One day prior to the drug treatment, 40,000 cells per well were seeded into 24-well plates in a volume of 0.5 mL. Stock solutions were diluted with complete medium to twice the desired final concentrations, and then 0.5 mL aliquots of each dilution were added to the designated wells. After 3 days incubation, cell growth was determined by counting cell number using a coulter counter (Z-M, coulter). Cell counts were-also taken at time 0 and subtracted from the test results to give net growth.

The test system of data set [2] is platelets in dog whole blood.
Method: (§5) Briefly, whole citrated blood is diluted 1:2 with sterile saline and placed in a warm chamber with a mini stir bar. An electronic probe, measuring electrical resistance, is inserted in the sample. The aggregometer is calibrated and the baseline is observed to detect any spontaneous aggregation. The test sample is added and allowed to run for at least 6 minutes. If the sample is an agonist the platelets will start to aggregate and stick to the electronic probe causing resistance across the electrodes to increase. This resistance, in ohms, is measured 6 minutes post addition of sample. The test samples are run at 25, 100, 200, 400 and 800 uM and compared to 100 uM L-ET-18-OCH3.
(§6) Collection of Blood Sample for in vitro Platelet Aggregation Testing: Venous blood is collected in 4.5 mL Vacutainer tubes containing 0.129 M sodium citrate using a 21G needle or larger. Blood is immediately mixed by gentle inversion 15-20 times and kept at room temperature. Dilution ratio is 1 to 9 (3.8% citrate solution:blood). One (2.0 mL) Vacutainer tube containing EDTA is also collected for platelet counts. Complete blood counts (CBC) are measured on the CDC Technologies Hemavet 1500 to ensure that the test subject's platelets are within normal range. Amy vials of hemolytic blood or blood containing any clots should be discarded. Platelet aggregation testing must be completed within 3 hours of blood collection. After this time the ability of platelets to aggregate decreases.
(§7) Dilutions were prepared in PBS or saline at 40× concentration. (25 uL test sample are added to 1000 uL diluted blood (1:40)).
The next data set has as its system whole human blood. The data set can be described thus: Hemolysis assay with whole human blood. How it is done:
Venous blood was collected in 10 mL Vacutainer tubes containing EDTA using a 21G needle or larger.
Stock solutions of 20 mM test sample in phosphate buffered saline (PBS) were prepared as follows:
Then 270 uL of whole blood was aliquotted in duplicate mini test tubes using positive displacement pipet. Next, 30 uL of each working stock solution, in duplicate, was added to the whole blood. Next, 30 uL of PBS was added for background control. The samples were capped or sealed with Parafilm and gently mixed. The blood was incubated at 37° C. in gentle rotating water bath for 30 minutes. Final concentration of test sample was 10% of working stock solution.
Total hemolysis samples of 1,% and 10% whole blood samples in deionized water were prepared as follows:
The samples were freeze thawed 3× in liquid nitrogen then wafer bath. The samples were then centrifuged 10 minutes at 1500 RPM. Next, 100 uL of supernatant was transferred to a cuvette and 1 mL deionized water was added. The absorbance was read at 550 nm vs. water blank.
H10 and H50 were calculated by graphing Percent Total Hemolysis vs. Test Sample Concentration. The Percent Total Henolysis=(average o.d of test sample)/(average o.d. of total hemolysis sample)×100

The next data set deals with NIH-3T3. The data set can be described thus: In vitro growth inhibition (GI50), SRB assay, normal fibroblast. Type of data set: cell-based, mouse. The conditions noted are these: NIH-3T3 normal murine fibroblast cell line, 3 days.
Source text: as §1, with “All the adherent cell lines were detached from the culture flasks by addition of 2-3 ml of 0.05% trypsin-EDTA. Thereafter, trypsin was inactivated by addition of 10 mL of 10% serum-containing RPMI-1640 medium. Cells were separated into a single-cell suspension by gentle pipetting action. Depending on the cell type, 3,6000 to 10,000 cells were plated onto 96-well plates a day prior to the drug treatment, in a volume of 100 μl per well.” left out
The test compounds were made in-house and the compounds were dissolved PBS or saline at a stock concentration of approximately 20 mM, which is 400 times the desired final maximum test concentration. […] After 3 days of incubation, cell growth was determined.
The SRB assay was performed as described by Monks, A., Scudiero, D., Skehan, P., Shoemaker, R., Paull, K., Vistica, D., Hose, C., Langley, J., Cronise, P., and Vaigro-Wolff, A. Feasibility of a high-flux anticancer drug screen using a diverse panel of cultured human tumo-r cell lines. […] Bound SRB was solubilized with Tris buffer (10 mM), and the ODs were read using an automated plate reader (Bio-Rad, Model 3550-UV) at 490 nm. Background values were subtracted from the test data, and the data was calculated as a % of control. […] Percentage growth was calculated as described by, Peters, A. C., Ahmad, I., Janoff, A. S., Pushkareva, M. Y., and Mayhew, E. Growth Inhibitory effects of liposome-associated 1-o-octadecyl-2-o-methyl-sn-glycero-3-phosphocholine. […]

Data set [3] concerns platelets in dog whole blood. The data set can be described thus: Platelet aggregation in whole blood (Chronolog whole blood aggregometer).
Method: as §5, §6, §7

As to `CCCCCCCCCCCCCCCCCCOCC(COP(=O)([O-])OCC[N+](C)(C)C)OC` [L-ET18OCH3, 1-O-octadecyl-2-O-methyl-glycerophosphocholine, reference compound], the “% L-ET18OCH3 (DEVDase, 6 hrs)” value is 100 ± 8.8% in data set [1] (10 μM ether lipid), 100 ± 10.4% in data set [1] (20 μM ether lipid) and 100 ± 9.3% in data set [1] (30 μM ether lipid). The GI50 is 10 to 12.8 µM with WI38; 6.5 to 9.1 µM in the data set with A549; 9.7 to 18.6 µM in the data set with MCF7; 5.5 µM and 6 µM in the data set with HT29; no less than 25.7 µM in the data set with MCF7/ADR; 1 to 1.5 µM in the data set with U937. In the data set on NIH-3T3, the GI50 was found to be 46.6 µM. The Platelet aggregation result in data set [2] is “+++”. In addition, the “platelet aggregation response (in words)” value in data set [2] was “elicits a platelet-aggregation response”. For the same molecule, in the data set on whole human blood, the H50 was 2000, >2000 μM.

In the case of `CCCCCCCCCCCCCCCCCCOC[C@@H](N)COP(=O)([O-])OCC[N+](C)(C)C` [9(R)], the “platelet aggregation response (in words)” value in data set [3] was “clear platelet aggregation response; also recorded: elicited a platelet aggregation response”. Also, the “Relative Platelet Aggregation (Ohms)” value came to 8 Ohms in [3] (25 μM), 16 Ohms in data set [3] (100 μM), 10 Ohms in data set [3] (400 μM) and 0 Ohms in data set [3] (800 μM).
